According to US12371454B2, “Cyclic peptide compound having Kras inhibitory action” (priority 2019, dated 2025):
Starred links: 1 amine or outer side, 2 acyl side, 3 side chain; linkers in the order of their positions; H or OH if unused. Positions of bridges follow the written chain, without caps; N, C: chain ends. Non-standard residues stand in square brackets, D forms with d. Residues, ends and D or L forms follow the SMILES beside them. *: point of attachment. hPhe(3-Cl-4-CF3) = N[C@@H](CCc1ccc(C(F)(F)F)c(Cl)c1)C(=O)O; NMePhe(3-CF3) = CN[C@@H](Cc1cccc(C(F)(F)F)c1)C(=O)O; NMePhe(2-CF3) = CN[C@@H](Cc1ccccc1C(F)(F)F)C(=O)O; NMePhe(4-Br) = CN[C@@H](Cc1ccc(Br)cc1)C(=O)O; NMePhe(3-Me) = CN[C@@H](Cc1cccc(C)c1)C(=O)O; NMePhe(4-Me) = CN[C@@H](Cc1ccc(C)cc1)C(=O)O; NMePhe(3-F) = CN[C@@H](Cc1cccc(F)c1)C(=O)O; NMePhe(4-F) = CN[C@@H](Cc1ccc(F)cc1)C(=O)O; NMePhe(2-Me) = CN[C@@H](Cc1ccccc1C)C(=O)O; NMedβ3hAla = C[C@H](CC(=O)[*:2])N(C)[*:1]; NMePhe(2-F) = CN[C@@H](Cc1ccccc1F)C(=O)O; NMeY = CN[C@@H](Cc1ccc(O)cc1)C(=O)O; NMeD = CN[C@@H](CC(=O)O)C(=O)O; NMeL = CN[C@@H](CC(C)C)C(=O)O; NMeV = CN[C@H](C(=O)O)C(C)C; d(β3hA) = C[C@@H](N)CC(=O)O; Piperidide = C1CCN(*)CC1; Ac5c = NC1(C(=O)O)CCCC1; CF3 = FC(F)(F)*; Sar = CNCC(=O)O

Assays:
[1] = target: T1, Kras and SOS1 (biotin-tagged human Kras loaded with GDP, His-tagged human SOS1) (Homo sapiens, UniProt P01116, G12D); assay: Protein-protein interaction inhibition between Kras and SOS1 (KrasGl2D-SOS PPI) using AlphaScreen; assay type: binding; settings: AlphaScreen; biotin-tagged human Kras loaded with GDP, His-tagged human SOS1; read-out: KRAS G12D-SOS PPI IC50
T1 construct: made in house; host or cells: E. coli (stated for Kras only)
How it was run: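 Energy transfer from nickel-chelate donor beads bound to His-SOS1 to streptavidin acceptor beads bound to biotin-Kras, expressed in E. coli and loaded with GDP after purification, was monitored. Donors were excited at 680 nm; singlet oxygen reaching acceptors gave emission read at 520-620 nm.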

[2] = tested on: Human pancreatic cancer cell line AsPC-1; assay: Measurement of AsPC-1 cell growth inhibition (AsPC-1 CGI); assay type: cell-based; settings: 96 h
How it was run: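 AsPC-1 cells in 15% FBS RPMI-1640 were exposed to test compound for 96 hours at 37° C, with CellTiter-Glo as endpoint.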

T1 sequence (P01116 1-188 isoform P01116-2 G12D): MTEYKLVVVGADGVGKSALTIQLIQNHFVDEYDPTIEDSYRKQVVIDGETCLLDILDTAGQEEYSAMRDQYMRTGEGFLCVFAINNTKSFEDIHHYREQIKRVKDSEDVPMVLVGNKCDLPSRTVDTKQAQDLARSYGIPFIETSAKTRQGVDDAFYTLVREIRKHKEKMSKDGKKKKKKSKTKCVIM

Row | SMILES | IC50 [1] | IC50 [2]
1 | CC[C@H](C)[C@@H]1NC(=O)[C@H](CC(C)C)N(C)C(=O)C[C@@H](C)N(C)C(=O)[C@H](C(C)C)N(C)C(=O)C2(CCCC2)NC(=O)[C@@H]2CCCN2C(=O)[C@H](CCc2ccc(C(F)(F)F)c(Cl)c2)NC(=O)CN(C)C(=O)[C@H](Cc2ccc(C)cc2)N(C)C(=O)CN(C)C(=O)CN(C)C1=O [Compound 1549] (cyclo([Ac5c][NMeV][NMedβ3hAla][NMeL]I[Sar][Sar][NMePhe(4-Me)][Sar][hPhe(3-Cl-4-CF3)]P)) | 3.6 nM | 50 to 100 nM
2 | CC[C@H](C)[C@@H]1NC(=O)[C@H](CC(C)C)N(C)C(=O)C[C@@H](C)N(C)C(=O)[C@H](C(C)C)N(C)C(=O)C2(CCCC2)NC(=O)[C@@H]2CCCN2C(=O)[C@H](CCc2ccc(C(F)(F)F)c(Cl)c2)NC(=O)CN(C)C(=O)[C@H](Cc2ccccc2C)N(C)C(=O)CN(C)C(=O)CN(C)C1=O [Compound 1550] (cyclo([Ac5c][NMeV][NMedβ3hAla][NMeL]I[Sar][Sar][NMePhe(2-Me)][Sar][hPhe(3-Cl-4-CF3)]P)) | 19 nM | 50 to 100 nM
3 | CC[C@H](C)[C@@H]1NC(=O)[C@H](CC(C)C)N(C)C(=O)C[C@@H](C)N(C)C(=O)[C@H](C(C)C)N(C)C(=O)C2(CCCC2)NC(=O)[C@@H]2CCCN2C(=O)[C@H](CCc2ccc(C(F)(F)F)c(Cl)c2)NC(=O)CN(C)C(=O)[C@H](Cc2ccc(OC)cc2)N(C)C(=O)CN(C)C(=O)CN(C)C1=O [Compound 1551] (cyclo([Ac5c][NMeV][NMedβ3hAla][NMeL]I[Sar][Sar][NMeY](Me)[Sar][hPhe(3-Cl-4-CF3)]P)) | 4.9 nM | 50 to 100 nM
4 | CC[C@H](C)[C@@H]1NC(=O)[C@H](CC(C)C)N(C)C(=O)C[C@@H](C(=O)N2CCCCC2)N(C)C(=O)[C@H](C(C)C)N(C)C(=O)C2(CCCC2)NC(=O)[C@@H]2CCCN2C(=O)[C@H](CCc2ccc(C(F)(F)F)c(Cl)c2)NC(=O)CN(C)C(=O)[C@H](Cc2cccc(C(F)(F)F)c2)N(C)C(=O)CN(C)C(=O)CN(C)C1=O [Compound 1555] ([NMeL]I[Sar][Sar][NMePhe(3-CF3)][Sar][hPhe(3-Cl-4-CF3)]P[Ac5c][NMeV][NMeD]-Piperidide; lactam N-11) | 6.1 nM | 100 to 500 nM
5 | CC[C@H](C)[C@@H]1NC(=O)[C@H](CC(C)C)N(C)C(=O)C[C@@H](C(=O)N2CCCCC2)N(C)C(=O)[C@H](C(C)C)N(C)C(=O)C2(CCCC2)NC(=O)[C@@H]2CCCN2C(=O)[C@H](CCc2ccc(C(F)(F)F)c(Cl)c2)NC(=O)CN(C)C(=O)[C@H](Cc2cccc(F)c2)N(C)C(=O)CN(C)C(=O)CN(C)C1=O [Compound 1557] ([NMeL]I[Sar][Sar][NMePhe(3-F)][Sar][hPhe(3-Cl-4-CF3)]P[Ac5c][NMeV][NMeD]-Piperidide; lactam N-11) | 5.7 nM | 100 to 500 nM
6 | CC[C@H](C)[C@@H]1NC(=O)[C@H](CC(C)C)N(C)C(=O)C[C@@H](C)N(C)C(=O)[C@H](C(C)C)N(C)C(=O)C2(CCCC2)NC(=O)[C@@H]2CCCN2C(=O)[C@H](CCc2ccc(C(F)(F)F)c(Cl)c2)NC(=O)CN(C)C(=O)[C@H](Cc2ccc(OC(F)(F)F)cc2)N(C)C(=O)CN(C)C(=O)CN(C)C1=O [Compound 1563] (cyclo([Ac5c][NMeV][NMedβ3hAla][NMeL]I[Sar][Sar][NMeY](CF3)[Sar][hPhe(3-Cl-4-CF3)]P)) | 6.2 nM | 50 to 100 nM
7 | CC[C@H](C)[C@@H]1NC(=O)[C@H](CC(C)C)N(C)C(=O)C[C@@H](C)NC(=O)[C@H](C(C)C)N(C)C(=O)C2(CCCC2)NC(=O)[C@@H]2CCCN2C(=O)[C@H](CCc2ccc(C(F)(F)F)c(Cl)c2)NC(=O)CN(C)C(=O)[C@H](Cc2ccc(OC(F)(F)F)cc2)N(C)C(=O)CN(C)C(=O)CN(C)C1=O [Compound 1565] (cyclo([Ac5c][NMeV][d(β3hA)][NMeL]I[Sar][Sar][NMeY](CF3)[Sar][hPhe(3-Cl-4-CF3)]P)) | 14 nM | 100 to 500 nM
8 | CC[C@H](C)[C@@H]1NC(=O)[C@H](CC(C)C)N(C)C(=O)C[C@@H](C)N(C)C(=O)[C@H](C(C)C)N(C)C(=O)C2(CCCC2)NC(=O)[C@@H]2CCCN2C(=O)[C@H](CCc2ccc(C(F)(F)F)c(Cl)c2)NC(=O)CN(C)C(=O)[C@H](Cc2ccccc2C(F)(F)F)N(C)C(=O)CN(C)C(=O)CN(C)C1=O [Compound 1567] (cyclo([Ac5c][NMeV][NMedβ3hAla][NMeL]I[Sar][Sar][NMePhe(2-CF3)][Sar][hPhe(3-Cl-4-CF3)]P)) | 33 nM | 100 to 500 nM
9 | CC[C@H](C)[C@@H]1NC(=O)[C@H](CC(C)C)N(C)C(=O)C[C@@H](C)N(C)C(=O)[C@H](C(C)C)N(C)C(=O)C2(CCCC2)NC(=O)[C@@H]2CCCN2C(=O)[C@H](CCc2ccc(C(F)(F)F)c(Cl)c2)NC(=O)CN(C)C(=O)[C@H](Cc2cccc(C)c2)N(C)C(=O)CN(C)C(=O)CN(C)C1=O [Compound 1570] (cyclo([Ac5c][NMeV][NMedβ3hAla][NMeL]I[Sar][Sar][NMePhe(3-Me)][Sar][hPhe(3-Cl-4-CF3)]P)) | 4.3 nM | 50 to 100 nM
10 | CC[C@H](C)[C@@H]1NC(=O)[C@H](CC(C)C)N(C)C(=O)C[C@@H](C)N(C)C(=O)[C@H](C(C)C)N(C)C(=O)C2(CCCC2)NC(=O)[C@@H]2CCCN2C(=O)[C@H](CCc2ccc(C(F)(F)F)c(Cl)c2)NC(=O)CN(C)C(=O)[C@H](Cc2ccc(F)cc2)N(C)C(=O)CN(C)C(=O)CN(C)C1=O [Compound 1571] (cyclo([Ac5c][NMeV][NMedβ3hAla][NMeL]I[Sar][Sar][NMePhe(4-F)][Sar][hPhe(3-Cl-4-CF3)]P)) | 4.8 nM | 50 to 100 nM
11 | CC[C@H](C)[C@@H]1NC(=O)[C@H](CC(C)C)N(C)C(=O)C[C@@H](C)N(C)C(=O)[C@H](C(C)C)N(C)C(=O)C2(CCCC2)NC(=O)[C@@H]2CCCN2C(=O)[C@H](CCc2ccc(C(F)(F)F)c(Cl)c2)NC(=O)CN(C)C(=O)[C@H](Cc2cccc(C(F)(F)F)c2)N(C)C(=O)CN(C)C(=O)CN(C)C1=O [Compound 1572] (cyclo([Ac5c][NMeV][NMedβ3hAla][NMeL]I[Sar][Sar][NMePhe(3-CF3)][Sar][hPhe(3-Cl-4-CF3)]P)) | 9.8 nM | 50 to 100 nM
12 | CC[C@H](C)[C@@H]1NC(=O)[C@H](CC(C)C)N(C)C(=O)C[C@@H](C(=O)N2CCCCC2)N(C)C(=O)[C@H](C(C)C)N(C)C(=O)C2(CCCC2)NC(=O)[C@@H]2CCCN2C(=O)[C@H](CCc2ccc(C(F)(F)F)c(Cl)c2)NC(=O)CN(C)C(=O)[C@H](Cc2ccc(Br)cc2)N(C)C(=O)CN(C)C(=O)CN(C)C1=O [Compound 1576] ([NMeL]I[Sar][Sar][NMePhe(4-Br)][Sar][hPhe(3-Cl-4-CF3)]P[Ac5c][NMeV][NMeD]-Piperidide; lactam N-11) | 5.1 nM | 100 to 500 nM
13 | CC[C@H](C)[C@@H]1NC(=O)[C@H](CC(C)C)N(C)C(=O)C[C@@H](C(=O)N2CCCCC2)N(C)C(=O)[C@H](C(C)C)N(C)C(=O)C2(CCCC2)NC(=O)[C@@H]2CCCN2C(=O)[C@H](CCc2ccc(C(F)(F)F)c(Cl)c2)NC(=O)CN(C)C(=O)[C@H](Cc2ccccc2C(F)(F)F)N(C)C(=O)CN(C)C(=O)CN(C)C1=O [Compound 1579] ([NMeL]I[Sar][Sar][NMePhe(2-CF3)][Sar][hPhe(3-Cl-4-CF3)]P[Ac5c][NMeV][NMeD]-Piperidide; lactam N-11) | 8.2 nM | 100 to 500 nM
14 | CC[C@H](C)[C@@H]1NC(=O)[C@H](CC(C)C)N(C)C(=O)C[C@@H](C(=O)N2CCCCC2)N(C)C(=O)[C@H](C(C)C)N(C)C(=O)C2(CCCC2)NC(=O)[C@@H]2CCCN2C(=O)[C@H](CCc2ccc(C(F)(F)F)c(Cl)c2)NC(=O)CN(C)C(=O)[C@H](Cc2ccccc2F)N(C)C(=O)CN(C)C(=O)CN(C)C1=O [Compound 1583] ([NMeL]I[Sar][Sar][NMePhe(2-F)][Sar][hPhe(3-Cl-4-CF3)]P[Ac5c][NMeV][NMeD]-Piperidide; lactam N-11) | 12 nM | 100 to 500 nM
15 | CC[C@H](C)[C@@H]1NC(=O)[C@H](CC(C)C)N(C)C(=O)C[C@@H](C(=O)N2CCCCC2)N(C)C(=O)[C@H](C(C)C)N(C)C(=O)C2(CCCC2)NC(=O)[C@@H]2CCCN2C(=O)[C@H](CCc2ccc(C(F)(F)F)c(Cl)c2)NC(=O)CN(C)C(=O)[C@H](Cc2ccccc2C)N(C)C(=O)CN(C)C(=O)CN(C)C1=O [Compound 1584] ([NMeL]I[Sar][Sar][NMePhe(2-Me)][Sar][hPhe(3-Cl-4-CF3)]P[Ac5c][NMeV][NMeD]-Piperidide; lactam N-11) | 9.5 nM | 100 to 500 nM
16 | CC[C@H](C)[C@@H]1NC(=O)[C@H](CC(C)C)N(C)C(=O)C[C@@H](C(=O)N2CCCCC2)N(C)C(=O)[C@H](C(C)C)N(C)C(=O)C2(CCCC2)NC(=O)[C@@H]2CCCN2C(=O)[C@H](CCc2ccc(C(F)(F)F)c(Cl)c2)NC(=O)CN(C)C(=O)[C@H](Cc2ccc(OC)cc2)N(C)C(=O)CN(C)C(=O)CN(C)C1=O [Compound 1588] ([NMeL]I[Sar][Sar][NMeY](Me)[Sar][hPhe(3-Cl-4-CF3)]P[Ac5c][NMeV][NMeD]-Piperidide; lactam N-11) | 4.1 nM | 100 to 500 nM
17 | CC[C@H](C)[C@@H]1NC(=O)[C@H](CC(C)C)N(C)C(=O)C[C@@H](C)N(C)C(=O)[C@H](C(C)C)N(C)C(=O)C2(CCCC2)NC(=O)[C@@H]2CCCN2C(=O)[C@H](CCc2ccc(C(F)(F)F)c(Cl)c2)NC(=O)CN(C)C(=O)[C@H](COc2ccccc2Cl)N(C)C(=O)CN(C)C(=O)CN(C)C1=O [Compound 1589] | 39 nM | 100 to 500 nM
18 | CC[C@H](C)[C@@H]1NC(=O)[C@H](CC(C)C)N(C)C(=O)C[C@@H](C)N(C)C(=O)[C@H](C(C)C)N(C)C(=O)C2(CCCC2)NC(=O)[C@@H]2CCCN2C(=O)[C@H](CCc2ccc(C(F)(F)F)c(Cl)c2)NC(=O)CN(C)C(=O)[C@H](Cc2ccc(Br)cc2)N(C)C(=O)CN(C)C(=O)CN(C)C1=O [Compound 1590] (cyclo([Ac5c][NMeV][NMedβ3hAla][NMeL]I[Sar][Sar][NMePhe(4-Br)][Sar][hPhe(3-Cl-4-CF3)]P)) | 3.2 nM | 50 to 100 nM
